Common to all, as to assay type: cell-based
Assay [1] relates to Staphylococcus aureus 29213. Briefly: Broth microdilution MIC, Staphylococcus aureus ATCC 29213. The note with it: for MIC90 / MIC: Staphylococcus aureus; for MIC90: ATCC29212, Table 1, read-out: MIC90-100 SA ATCC 29212; for MIC: ATCC29213, Table 2, read-out: MIC(90-100) SA-ATCC 29213. From the text:
(§1) See, NCCLS document M7-A5. Methods for Dilution Antimicrobial Susceptibility Tests for Bacteria That Grow Aerobically; Approved Standard-Fifth Edition. Volume 20, Number 2. January 2000, (ISBN 1-56238-394-9) and Lorian V. Antibiotics. Laboratory Medicine. 4th ed. Baltimore: Williams and Wilkins, pp. 52-111 (1996). For subsequent testing, the following strains have been used: Staphylococcus aureus NRS4 (992; HIP5836; New Jersey) (Smith et al., New Engl. J. Med. 340: 493-501 (1999); Tenover et al., J. Clin. Microbiol. 36: 1020-1027 (1998)), Staphylococcus aureus NRS3 (963sm; HIP5827; Michigan) (Smith et al., ibid.; Tenover et al., ibid.), Staphylococcus aureus NRS103 (Becker) (Karakawa and Vann, Sem. Infect. Dis. 4: 285 (1982), Staphylococcus aureus NRS102 (Reynolds) Karakawa and Vann, ibid; McMurray et al., JID 162: 759-762 (1990)), Staphylococcus epidermidis NRS101 (ATCC 35984), Streptococcus pneumoniae (ATCC 49619), Enterococcus faecalis (ATCC 51299), and Staphylococcus aureus (ATCC 43300.
(§2) Stock cultures of these strains were obtained by seeding colonies from overnight streak plates (Tryptic Soy Agar II (TSAII) and 5% sheep's blood (SB) agar plates: Becton Dickinson, CA#2211261) into sterile Mueller-Hinton Broth (MHB)(Becton Dickinson, CA#211443) and growing the suspensions to mid-late log phase in 13 mL screw-cap tubes. Glycerol (Sigma, CA#G-6279) was sterilized by autoclaving for 15 minutes at 121° C. in 6 mL volumes, and then stored at 2-8° C. This was diluted to 20% in dH2O, and then added 1:1 (250 μL:250 μL, 10% final glycerol concentration) to the logarithmically growing bacterial suspension of each strain. Tubes were frozen and stored at −70° C. Purity of the stock cultures was tested by thawing one tube of each strain in a water bath at 37° C. and plating them on TSAII with 5% SB. Plates were incubated overnight at 37° C. and colonies were examined for morphology. Growth curves and approximate CFU/mL were also obtained.
(§3) High purity substituted oxazolidinones prepared according to the method of the present invention and a ZYVOX standard (ZYVOX is a trade name for linezolid available from Pharmacia Corporation) were provided by Synthon Corporation, Monmouth Junction, N.J. Compounds were dissolved at 10 mg/mL in DMSO, as after a dilution of approx. 39.0 to reach the desired final starting concentration of 256 ug/ml, the concentration of DMSO is approximately 2.5%. Compounds were then stored at room temperature (25° C.) in the dark.
(§4) Antimicrobial susceptibility screening was as follows. All compounds were initially screened for activity in duplicate at 256 μg/mL (2.5% DMSO), including ZYVOX, the positive control for antimicrobial activity. A single well of bacterially inoculated 2.5% DMSO served as a positive control for bacterial growth, while a well of DMSO inoculated with of 50 μL of sterile 0.9% saline served as a negative growth control. Controls were prepared on every microplate, so that 46 was the maximum number of compounds that were screened per plate. Broth was pipetted into sterile microcentrifuge tubes, to which the compounds were then added (1:19.53 dilution or 2× final concentration). Each tube was vortexed, and 50 μL was immediately transferred to the microplate wells for each strain. Solubility was assessed by visual observation. MB (medium broth solubility) was recorded if the solution appeared only slightly cloudy. LB (low broth solubility) was recorded if the solution was extremely cloudy, and especially if larger, clumpy precipitates formed. Bacteria were grown as described above, although absorbance was measured at 650 nm and bacteria were diluted to an initial OD of 0.12-0.15. Bacteria were then further diluted 1:100 with 0.9% sterile saline. Within 15 minutes of this final dilution, 50 μL of this suspension was added to each well for a final volume of […], and a final bacterial concentration of 1×10^5 CFU/mL (except for the negative control well). Plates were grown as above and all observations were recorded. […]
For orientation: Broth dilution looks for growth in wells or tubes with falling amounts of substance.

Assay [2] has as its system Enterococcus faecalis 29212. The experiment in a line: Broth microdilution MIC, Enterococcus faecalis ATCC 29212. The note with it: EF, strain printed ATCC 29213; for MIC90: Enterococcus faecalis, ATCC29213, Table 1, read-out: MIC90-100 EF ATCC 29213.
The test system of assay [3] is Staphylococcus aureus NRS4 (992; HIP5836; New Jersey). Briefly: Broth microdilution MIC, MR SA New Jersey. The conditions noted are these: strain New Jersey; for MIC90: Staphylococcus aureus, NRS4, methicillin resistant SA, read-out: MIC90-100 MR SA New Jersey.
Source text: as §1, §2, §3, §4

The test system of assay [4] is Staphylococcus aureus NRS3 (963sm; HIP5827; Michigan). Briefly: Broth microdilution MIC, MR SA Michigan. The note with it: strain Michigan; for MIC90: Staphylococcus aureus, NRS3, methicillin resistant SA, read-out: MIC90-100 MR SA Michigan.
Source text: as §1, §2, §3, §4

Assay [5] concerns Enterococcus faecalis (ATCC 51299). Briefly: Broth microdilution MIC, Enterococcus faecalis ATCC 51299. The conditions noted are these: ATCC51299, vancomycin sensitive EF, ATCC 51299, read-out: MIC90-100 VS EF ATCC 51299.
Source text: as §1, §2, §3, §4

Assay [6] relates to Staphylococcus aureus (ATCC 43300). The experiment in a line: Broth microdilution MIC, MR SA ATCC 43300. The conditions noted are these: ATCC43300, methicillin resistant SA, read-out: MIC90-100 MR SA ATCC 43300.
Source text: as §1, §2, §3, §4

The subject of assay [7] is Staphylococcus aureus NRS102 (Reynolds). The experiment in a line: Broth microdilution MIC, Pen. R SA Reynolds. The note with it: strain Reynolds, read-out: MIC90-100 Pen. R SA Reynolds.
Source text: as §1, §2, §3, §4

The subject of assay [8] is Staphylococcus aureus NRS103 (Becker). Briefly: Broth microdilution MIC, Ref SA Becker. The note with it: strain Becker, read-out: MIC90-100 Ref SA Becker.
Source text: as §1, §2, §3, §4

For assay [9], the system named is Myeloid bone marrow cells. Briefly: Bone marrow cell growth inhibition, myeloid. An excerpt:
(§5) In general, many of the substituted oxazolidinones were as effective as ZYVOX.

Assay [10] relates to Erythroid bone marrow cells. Briefly: Bone marrow cell growth inhibition, erythroid.
Source text: as §5

For assay [11], the system named is Megakaryocytic bone marrow cells. Briefly: Bone marrow cell growth inhibition, megakaryocytic.
Source text: as §5

SMILES strings stand for the structures. In brackets after ≈: the same amount, converted by molar mass. A value given as a limit tells only on which side of the number the result lay.

Regarding `CC(=O)NC[C@H]1CN(c2ccc(N3CCOCC3)c(F)c2)C(=O)O1` [ZYVOX, linezolid, reference compound], the MIC90 (commonly the lowest concentration that inhibits either 90% of growth or 90% of the strains tested, depending on the study) worked out at 2 µg/mL (≈ 5.93 µM) in [1] (SA, strain ATCC 29212); 2 µg/mL (≈ 5.93 µM) in assay [2]; 2 µg/mL (≈ 5.93 µM) in assay [3]; 2 µg/mL (≈ 5.93 µM) in [4]; 0.5 µg/mL (≈ 1.48 µM) in [5]; 1 µg/mL (≈ 2.96 µM) in [6]. Also, the MIC90 in assay [7] and in assay [8] was 1 µg/mL (≈ 2.96 µM) each time. Also, the IC50 (usually the point on the concentration scale where inhibition reaches its midpoint) in assay [9] worked out at 20 µg/mL (≈ 59.3 µM); in assay [10], 0.08 µg/mL (≈ 0.237 µM); in [11] it was 4 µg/mL (≈ 11.9 µM).
On to `CCN1C[C@H](CNSc2ccc([N+](=O)[O-])cc2)OC1=O` [Compound 1715], for which the MIC90 is 2 µg/mL (≈ 6.73 µM) in [1] (SA, strain ATCC 29212); 4 µg/mL (≈ 13.5 µM) in assay [2]; 3 µg/mL (≈ 10.1 µM) in [3]; 3 µg/mL (≈ 10.1 µM) in assay [4]; 8 µg/mL (≈ 26.9 µM) in assay [5]; 4 µg/mL (≈ 13.5 µM) in assay [6]. Besides, the MIC90 was 32 µg/mL (≈ 108 µM) in assay [7] and 8 µg/mL (≈ 26.9 µM) in assay [8]. Further, the results for the IC50 in [9], in assay [10] and in assay [11] were 5 µg/mL (≈ 16.8 µM), 0.7 µg/mL (≈ 2.35 µM) and 0.08 µg/mL (≈ 0.269 µM), respectively.
As to `CC(C)N1C[C@@H](CNSc2ccc([N+](=O)[O-])cc2)OC1=O` [Compound 1705], the MIC90 came to 2 µg/mL (≈ 6.42 µM) in assay [1] (SA, strain ATCC 29212); 4 µg/mL (≈ 12.8 µM) in [2]; 3 µg/mL (≈ 9.64 µM) in [3]; 2 µg/mL (≈ 6.42 µM) in [4]; 8 µg/mL (≈ 25.7 µM) in assay [5]; 4 µg/mL (≈ 12.8 µM) in assay [6]. The MIC90 in assay [7] worked out at 32 µg/mL (≈ 103 µM); in assay [8], 4 µg/mL (≈ 12.8 µM). The IC50 was found to be 5 µg/mL (≈ 16.1 µM) in [9], 0.5 µg/mL (≈ 1.61 µM) in assay [10] and 0.08 µg/mL (≈ 0.257 µM) in assay [11].
For the molecule `CC(C)N1C[C@@H](COS(=O)(=O)c2ccc([N+](=O)[O-])cc2)OC1=O` [Compound 253], the MIC90 in assay [1] (SA, strain ATCC 29212) was 8 to 16 µg/mL (≈ 23.2 to 46.5 µM); in assay [2], 250 µg/mL (≈ 726 µM); in assay [3], 256 µg/mL (≈ 743 µM); in assay [4], 256 µg/mL (≈ 743 µM); in assay [5] it was > 256 µg/mL; in assay [6] it was > 256 µg/mL. Also, the MIC (usually the lowest concentration that inhibits growth of the organism) in assay [1] turned out to be 15.6 µg/mL (≈ 45.3 µM). Besides, the IC50 is 30 µg/mL (≈ 87.1 µM) in assay [9], 7 µg/mL (≈ 20.3 µM) in assay [10] and 10 µg/mL (≈ 29 µM) in assay [11].
For the molecule `CCN1C[C@@H](COS(=O)(=O)c2ccc([N+](=O)[O-])cc2)OC1=O` [Compound 1192], in assay [1], the MIC stood at 8 µg/mL (≈ 24.2 µM). Also, the “MIC90-100 SA ATCC 29212” value in assay [1] (Table 1, SA, strain ATCC 29212) lay in the range of 4 to 8 µg/mL. Also, in assay [2] (Table 1), the “MIC90-100 EF ATCC 29213” value was 250 µg/mL (≈ 757 µM). In [3] (methicillin resistant SA), the “MIC90-100 MR SA New Jersey” value was found to be 256 µg/mL (≈ 775 µM). In [4] (methicillin resistant SA), the “MIC90-100 MR SA Michigan” value is 256 µg/mL (≈ 775 µM). In addition, the MIC90 was > 256 µg/mL in assay [5] and 128 µg/mL (≈ 388 µM) in assay [6]. Besides, the IC50 in [9] came to 5 µg/mL (≈ 15.1 µM); in assay [10] it was 0.05 µg/mL (≈ 0.151 µM); in [11], 0.6 µg/mL (≈ 1.82 µM).

These data come from patent US20070265451A1, “Process for the preparation of oxazolidinones and method of use thereof” (Board of Trustees of Michigan State University, priority 2001, published 2007).
